Source: paper PMC7915026, “Sulfaguanidine Hybrid with Some New Pyridine-2-One Derivatives: Design, Synthesis, and Antimicrobial Activity against Multidrug-Resistant Bacteria as Dual DNA Gyrase and DHFR Inhibitors” (Antibiotics, 2021)
≈ marks a conversion by molar mass, not a printed value. Like-named read-outs stand apart in the source and are kept apart here.

Tests used:
B. subtilis ATCC 6633 = assay: Inhibition zone, paper disk/agar diffusion; assay type: cell-based; settings: B. subtilis; Na = no activity
Excerpt: (§1) The antimicrobial activity performed at the bacteriology laboratory, Botany and Microbiology Department, Faculty of Science, Al-Azhar University, Cairo, Egypt. The inhibition zone (IZ) of the tested derivatives expressed as the diameter (mm) according to the agar plate diffusion method.

C. albicans (ATCC 10231) [1] = assay: Inhibition zone, paper disk/agar diffusion; assay type: cell-based; settings: Na = no activity
Excerpt: as §1

[2] = system: F. oxysporum (RCMB 008002); assay: Inhibition zone, paper disk/agar diffusion; assay type: cell-based; settings: Na = no activity
Excerpt: as §1

S. aureus ATCC 29213 = assay: Inhibition zone, paper disk/agar diffusion; assay type: cell-based; settings: S. aureus; Na = no activity
Excerpt: as §1

S. typhi ATCC 6539 = assay: Inhibition zone, paper disk/agar diffusion; assay type: cell-based; settings: S. typhi; Na = no activity
Excerpt: as §1

E. faecalis ATCC 29212 = assay: Inhibition zone, paper disk/agar diffusion; assay type: cell-based; settings: E. faecalis; Na = no activity
Excerpt: as §1

P. aeruginosa ATCC 27853 = assay: Inhibition zone, paper disk/agar diffusion; assay type: cell-based; settings: P. aeruginosa; Na = no activity
Excerpt: as §1

E. coli ATCC 25922 = assay: Inhibition zone, paper disk/agar diffusion; assay type: cell-based; settings: E. coli; Na = no activity
Excerpt: as §1

C. albicans (ATCC 10231) [3] = assay: MIC and MFC determination; assay type: cell-based
[4] = system: F. oxysporum (RCMB 008002); assay: MIC and MFC determination; assay type: cell-based
spleen and thymus = assay: In vivo immunomodulation: immune organ weight and indexes; settings: mice
Excerpt: Both the spleen and thymus have important antibacterial and fungal immune organ responses, and any change in weight, and indexes can reflect the level of immune regulation. Additionally, the relative spleen and thymus indexes are important indices for nonspecific immunity and potential immunomodulatory compounds that increase the spleen and thymus weight. This increase is due to immune cells’ stimulation in the spleen and thymus. […]

[5] = system: CD4+ and CD8+ T lymphocytes; assay: In vivo T lymphocyte subsets from peripheral blood, flow cytometry; settings: mice
Excerpt: Activation of immune cells as CD4^+ and CD8^+ T cells is one possible mechanism of a drug’s immune stimulus activity. An increase in these cells is thought to be a good indicator of an active immune response to infections. So, our work extended to study the effect of the most promising derivatives (2d, 8, and 11) on T lymphocyte subsets (CD4^+ and CD8^+) from peripheral blood, and determined the relative level in model mice that analyzed by flow cytometry after the period of treating.
In vitro intracellular killing activities for the most promising six derivatives 2a, 2b, 2d, 3a, 8, and 11 were performed according to reported methods.

Row | Compound | Mean Diameter of the Inhibition Zone (B. subtilis ATCC 6633) [mm] | Mean Diameter of the Inhibition Zone (C. albicans (ATCC 10231) [1]) [mm] | Mean Diameter of the Inhibition Zone [2] | Mean Diameter of the Inhibition Zone (S. aureus ATCC 29213) [mm] | Mean Diameter of the Inhibition Zone (S. typhi ATCC 6539) | melting point [°C] | Mean Diameter of the Inhibition Zone (E. faecalis ATCC 29212) [mm] | Mean Diameter of the Inhibition Zone (P. aeruginosa ATCC 27853) [mm] | Mean Diameter of the Inhibition Zone (E. coli ATCC 25922) [mm] | other results
1 | COc1ccc(-c2c(C(=O)Nc3ccc(S(=O)(=O)NC(=N)N)cc3)c(N)[nH]c(=O)c2C#N)cc1 [Compound 6, 2-Amino-N-(4-(carbamimidoylsulfamoyl)phenyl)-5-cyano-4-(4-methoxyphenyl)-6-oxo-1,6-dihydropyridine-3-carboxamide] | 18 ± 0.12 | 18 ± 0.20 | 14 ± 0.38 mm | 16 ± 0.54 | 12 ± 0.61 mm | 265 to 268 | – | – | – | –
2 | COc1ccc(-c2c(C(=O)Nc3ccc(S(=O)(=O)NC(=N)N)cc3)c(N)n(C3CCCCC3)c(=O)c2C#N)cc1 [Compound 4, 2-Amino-N-(4-(N-carbamimidoylsulfamoyl)phenyl)-5-cyano-1-cyclohexyl-4-(4-methoxyphenyl)-6-oxo-1,6-dihydropyridine-3-carboxamide] | 23 ± 0.22 | 20 ± 0.50 | no activity | 24 ± 0.33 | no activity | 272 to 274 | 25 ± 0.35 | 23 ± 0.74 | – | –
3 | Cc1cc2csc(N)c2c(=O)n1-c1ccc(S(=O)(=O)NC(=N)N)cc1 [Compound 10, 4-(3-Amino-6-methyl-4-oxothieno[3,4-c]pyridin-5(4H)-yl)-N-carbamimidoylbenzenesulfon-amide] | 14 ± 0.56 | 14 ± 0.45 | 16 ± 0.86 mm | 17 ± 0.48 | 12 ± 0.35 mm | – | 19 ± 0.63 | 21 ± 0.54 | 20 ± 0.43 | –
4 | N#Cc1c(N)cc(N)n(-c2ccc(S(=O)(=O)NC(=N)N)cc2)c1=O [Compound 7, N-Carbamimidoyl-4-(4,6-diamino-3-cyano-2-oxopyridin-1(2H)-yl) benzenesulfonamide] | 13 ± 0.41 | 13.0 ± 0.20 | no activity | – | – | 260 | 14 ± 0.47 | 12 ± 0.63 | – | –
5 | COc1ccc(-c2c(C#N)c(N)n(-c3ccc(S(=O)(=O)NC(=N)N)cc3)c(=O)c2C#N)cc1 [Compound 3b, 4-(6-Amino-3,5-dicyano-4-(4-methoxyphenyl)-2-oxopyridin-1(2H)-yl)-N-carbamimidoylbenzenesulfonamide] | – | 12 ± 0.36 | no activity | – | 14 ± 0.16 mm | 256 to 258 | 19 ± 0.65 | – | 21 ± 0.11 | –
6 | C[C@@H]1[C@H](O)[C@@H](C)/C=C/C=C/C=C/C=C/C=C/C=C/C=C/[C@H](O[C@@H]2O[C@H](C)[C@@H](O)[C@H](N)[C@@H]2O)C[C@@H]2O[C@](O)(C[C@@H](O)C[C@@H](O)[C@H](O)CC[C@@H](O)C[C@@H](O)CC(=O)O[C@H]1C)C[C@H](O)[C@H]2C(=O)O [Amphotericin B, amphotericin B, reference compound] | – | 22 ± 0.2 | 18 ± 0.32 mm | – | – | – | – | – | – | Mean Diameter of the Inhibition Zone (C. albicans (ATCC 10231) [1]; listed as S2): 22 ± 0.20 mm; MFC (C. albicans (ATCC 10231) [3]; Candida albicans, ATCC10231, read-out: MFC): 37.3 µM (≈ 34.4 µg/mL); MIC (C. albicans (ATCC 10231) [3]; Candida albicans, ATCC10231, read-out: MIC): 16.8 µM (≈ 15.5 µg/mL); MFC (C. albicans (ATCC 10231) [3]; listed as Amp. B): 37.26 ± 0.65 µM (≈ 34.4 µg/mL); MIC (C. albicans (ATCC 10231) [3]; listed as Amp. B): 16.81 ± 0.29 µM (≈ 15.5 µg/mL); MFC ([4]; Fusarium oxysporum, RCMB008002, read-out: MFC): 70.6 µM (≈ 65.3 µg/mL); MIC ([4]; Fusarium oxysporum, RCMB008002, read-out: MIC): 33.6 µM (≈ 31.1 µg/mL); MFC ([4]; listed as Amp. B): 70.62 ± 0.76 µM (≈ 65.3 µg/mL); MIC ([4]; listed as Amp. B): 33.63 ± 0.98 µM (≈ 31.1 µg/mL)
7 | N#Cc1c(-c2ccc(O)cc2)c(C#N)c(=O)n(-c2ccc(S(=O)(=O)NC(=N)N)cc2)c1N [Compound 3c, 4-(6-Amino-3,5-dicyano-4-(4-hydroxyphenyl)-2-oxopyridin-1(2H)-yl)-N-carbamimidoylbenzenesulfonamide] | – | 22 ± 0.19 | 19 ± 0.55 mm | – | 20 ± 0.33 mm | 265 to 268 | 19 ± 0.33 | 17 ± 0.20 | – | –
8 | N#CCC(=O)Nc1ccc(S(=O)(=O)NC(=N)N)cc1 [Compound 1, N-(4-(N-Carbamimidoylsulfamoyl)phenyl)-2-cyanoacetamide] | 14 ± 0.70 | 15 ± 0.63 | 13 ± 0.54 mm | 17 ± 0.50 | 17 ± 0.54 mm | 172 to 174 | 19 ± 0.70 | 20±0.65 | 16 ± 0.35 | –
9 | COc1ccc(C=Cc2cc(C)n(-c3ccc(S(=O)(=O)NC(=N)N)cc3)c(=O)c2C#N)cc1 [Compound 9b, N-Carbamimidoyl-4-(3-cyano-4-(4-methoxystyryl)-6-methyl-2-oxopyridin-1(2H)-yl) benzene sulfonamide] | 23 ± 0.50 | 17 ± 0.56 | 15 ± 0.15 mm | 23 ± 0.12 | 20 ± 0.16 mm | – | 21 ± 0.55 | 16 ± 0.20 | 22 ± 0.81 | –
10 | N#C/C(=C\c1ccc(O)cc1)C(=O)Nc1ccc(S(=O)(=O)NC(=N)N)cc1 [Compound 2c, N-(4-(N-Carbamimidoylsulfamoyl)phenyl)-2-cyano-3-(4-hydroxyphenyl) acrylamide] | 20 ± 0.38 | 16 ± 0.52 | 14 ± 0.5 mm | 21 ± 0.85 | 17 ± 0.24 mm | 256 to 258 | 17 ± 0.37 | 20 ± 0.42 | 19 ± 0.75 | –
11 | O=C1O[C@H]([C@@H](O)CO)C(O)=C1O [Vitamin C, vitamin C, reference compound] | – | – | – | – | – | – | – | – | – | Spleen weight (spleen and thymus): 260 ± 0.028 mg; Thymus index (spleen and thymus): 0.633 ± 0.06 mg/g; Thymus weight (spleen and thymus): 17.2 ± 0.31 mg; T cells CD4+ [5]: 76.74 ± 0.7%; T cells CD8+ [5]: 19.62 ± 0.21%
12 | Cc1cc(C=Cc2ccc(Cl)cc2)c(C#N)c(=O)n1-c1ccc(S(=O)(=O)NC(=N)N)cc1 [Compound 9a, N-Carbamimidoyl-4-(4-(4-chlorostyryl)-3-cyano-6-methyl-2-oxopyridin-1(2H)-yl) benzene-sulfonamide] | 22 ± 0.41 | 19 ± 0.65 | no activity | 17 ± 0.78 | 14 ± 0.52 mm | – | 25 ± 0.11 | – | 18 ± 0.30 | –
13 | COc1ccc(-c2c(C#N)c(N)n(-c3ccc(S(=O)(=O)NC(=N)N)cc3)c(=O)c2C#N)cc1O [Compound 3d, 4-(6-Amino-3,5-dicyano-4-(3-hydroxy-4-methoxyphenyl)-2-oxopyridin-1(2H)-yl)-N-carbamimidoylbenzenesulfonamide] | 20 ± 0.11 | 17 ± 0.21 | no activity | 23 ± 0.29 | 15 ± 0.36 mm | 250 to 252 | 21 ± 0.54 | – | 22 ± 0.43 | –
14 | N#Cc1c(N)n(-c2ccc(S(=O)(=O)NC(=N)N)cc2)c(=O)c2c(=N)oc3ccccc3c12 [Compound 12, 4-(2-Amino-1-cyano-5-imino-4-oxo-4H-chromeno[3,4-c]pyridin-3(5H)-yl)-N-cabamimidoylbenzenesulfonamide] | 15 ± 0.45 | 12 ± 0.50 | no activity | – | – | 266 to 268 | 12 ± 0.74 | – | 14 ± 0.21 | –
